The subject of one assay is SJSA-1. Description: Antiproliferative activity against human SJSA1 cells.
Another assay addresses HCT-116. Description: Antiproliferative activity against human HCT116 cells.
The next assay concerns the target RKO. Description: Antiproliferative activity against human RKO cells.
A further assay addresses SW480. Nature of the assay: Antiproliferative activity against human SW480 cells.
Another assay addresses MDA-MB-435. Description: Antiproliferative activity against human MDA435 cells.

Molecules are shown by their SMILES.

In the case of `O=C1N=C(NCc2cccs2)S/C1=C/c1ccc2ncccc2c1`, half-maximal inhibition in the assay on SJSA-1 (IC50) was put at 4550 nM.
In the case of `O=C1N=C(N[C@@H](CO)Cc2ccccc2)SC1=Cc1ccc2ncccc2c1` [(R,Z)-2-(1-hydroxy-3-phenylpropan-2-ylamino)-5-(quinolin-6-ylmethylene)thiazol-4(5H)-one], the half-inhibitory concentration (IC50) (as a rule, the concentration at which inhibition is half-maximal) was found to be 1580 nM on HCT-116; 1390 nM at RKO; 3240 nM with SJSA-1; 3070 nM against SW480; 2030 nM on MDA-MB-435.
The compound `O=C1N=C(N[C@@H]2C[C@H]2c2ccccc2)SC1=Cc1ccc2ncccc2c1` [(Z)-2-((1R,2S)-2-phenylcyclopropylamino)-5-(quinolin-6-ylmethylene)thiazol-4(5H)-one] registered a concentration for half-maximal inhibition (IC50) in the assay on SJSA-1 of 1850 nM.
